Source: ChEMBL document CHEMBL1159149, “Phenalene metabolites from eichhornia crassipes” (1992)

The compounds below were run on Porphyridium aerugineum (assay: Compound at a conc of 2 umol was tested for antialgal activity against Porphyridium aerugineum in filter paper-petri dish bioassay).
Format: functional

Structure (SMILES)	Inhibition zone [mm]
COc1cc2ccc(-c3ccccc3)c3c2c(c1OC)CCC3OC (stereo not drawn)	25
COc1ccc2c(-c3ccccc3)cc(OC)c3c2c1CCC3OC (stereo not drawn)	25
COc1ccc(-c2cc(OC)c3c4c(c(OC)ccc24)CCC3OC)cc1 (stereo not drawn)	25
